From patent US10836764B2, “5-HT2C receptor agonists and compositions and methods of use” (Arena Pharmaceuticals, Inc., priority 2016, dated 2020)
Read-outs that look alike come from different tables or passages of the source.

Columns and labels:
5-HT2A receptor [1] = target: T1, 5-HT2A receptor (Homo sapiens (Human), UniProt P28223); assay: IP accumulation assay, 5-HT2A; assay type: cell-based
Procedure: (§1) HEK293 cells expressing recombinant 5-HT2 receptors were added to sterile poly-D-lysine-coated 96-well microtiter plates (35,000 cells/well) and labeled with 0.6 μCi/well of [^3H]inositol in myoinositol-free DMEM for 18 h. Unincorporated [^3H]inositol was removed by aspiration and replaced with fresh myoinositol-free DMEM supplemented with LiCl (10 mM final) and pargyline (10 μM final). Serially diluted test compounds were then added and incubation was conducted for 2 h at 37° C. (5-HT2B, and 5-HT2A) and RT (5-HT2C). Incubations were then terminated by lysing cells with the addition of ice-cold 0.1 M formic acid followed by freezing at −80° C. After thawing, total [^3H]inositol phosphates were resolved from [^3H]inositol using AG1-X8 ion exchange resin (Bio-Rad) and [^3H]inositol phosphates were measured by scintillation counting using a Perkin Elmer TopCount® scintillation counter. All EC50 determinations were performed using 10 different concentrations and triplicate determinations were made at each test concentration.

5-HT2B receptor = 5-HT2B receptor (Homo sapiens (Human), UniProt P41595); assay: IP accumulation assay, 5-HT2B; assay type: cell-based
Procedure: as §1

5-HT2C receptor = 5-HT2C receptor (Homo sapiens (Human), UniProt P28335); assay: IP accumulation assay, 5-HT2C; assay type: cell-based
Procedure: as §1

5-HT2A receptor [2] = target: T1, 5-HT2A receptor; assay: DOI radioligand binding assay, 5-HT2A; conditions: [125I]DOI competition, HEK293 cell membranes; read-out: DOI Binding 5HT2A
Procedure: For the compounds of Table A, the following procedure was used. HEK293 cells stably expressing recombinant 5-HT2 receptors were harvested, suspended in ice-cold phosphate buffered saline, pH 7.4 (PBS), and then centrifuged at 48,000 g for 20 min at 4° C. The resulting cell pellet was then re-suspended in wash buffer containing 20 mM HEPES, pH 7.4 and 0.1 mM EDTA, homogenized on ice using a Brinkman Polytron, and centrifuged (48,000 g for 20 min at 4° C.). The pellet was then resuspended in 20 mM HEPES, pH 7.4, homogenized on ice, and centrifuged (48,000 g for 20 min at 4° C.). Crude membrane pellets were stored at −80° C. until used for radioligand binding assays.
For the compounds of Table A, the following procedure was used. […] Experiments comprised addition of 95 μL of assay buffer (20 mM HEPES, pH 7.4, 10 mM MgCl2), 50 μL of membranes, 50 μL of radioligand stock, and 5 μL of test compound diluted in assay buffer to 96-well microtiter plates, which were then incubated for 1 h at room temperature. Assay incubations were terminated by rapid filtration through PerkinElmer F/C filtration plates under reduced pressure using a 96-well Packard filtration apparatus, followed by washing three times with ice cold assay buffer. Plates were then dried at 45° C. for a minimum of 2 h. Finally, 25 μL of BetaScint™ scintillation cocktail was added to each well and the plates were counted in a Packard TopCount® scintillation counter. In each competition study, test compounds were dosed at ten concentrations with triplicate determinations at each test concentration.

[3] = IP accumulation, HEK293 cells, 2 h at 37° C., read-out: EC50 5HT2B
[4] = IP accumulation, HEK293 cells, 2 h at RT, read-out: EC50 5HT2C
[5] = IP accumulation, HEK293 cells, 2 h at 37° C., read-out: EC50 5HT2A

Sequence of 5-HT2C receptor (P28335 33-458): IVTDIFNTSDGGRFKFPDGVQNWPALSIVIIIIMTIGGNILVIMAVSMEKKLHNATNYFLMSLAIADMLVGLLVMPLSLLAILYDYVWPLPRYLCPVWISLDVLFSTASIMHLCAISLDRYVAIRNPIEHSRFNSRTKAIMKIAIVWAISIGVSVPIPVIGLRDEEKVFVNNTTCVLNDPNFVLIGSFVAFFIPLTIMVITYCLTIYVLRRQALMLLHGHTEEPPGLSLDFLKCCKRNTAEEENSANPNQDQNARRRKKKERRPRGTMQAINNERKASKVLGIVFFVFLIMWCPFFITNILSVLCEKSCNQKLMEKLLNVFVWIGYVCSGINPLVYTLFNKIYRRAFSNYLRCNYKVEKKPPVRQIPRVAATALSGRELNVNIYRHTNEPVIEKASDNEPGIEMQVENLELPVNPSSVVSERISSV
T1 sequence (P28223 whole entry): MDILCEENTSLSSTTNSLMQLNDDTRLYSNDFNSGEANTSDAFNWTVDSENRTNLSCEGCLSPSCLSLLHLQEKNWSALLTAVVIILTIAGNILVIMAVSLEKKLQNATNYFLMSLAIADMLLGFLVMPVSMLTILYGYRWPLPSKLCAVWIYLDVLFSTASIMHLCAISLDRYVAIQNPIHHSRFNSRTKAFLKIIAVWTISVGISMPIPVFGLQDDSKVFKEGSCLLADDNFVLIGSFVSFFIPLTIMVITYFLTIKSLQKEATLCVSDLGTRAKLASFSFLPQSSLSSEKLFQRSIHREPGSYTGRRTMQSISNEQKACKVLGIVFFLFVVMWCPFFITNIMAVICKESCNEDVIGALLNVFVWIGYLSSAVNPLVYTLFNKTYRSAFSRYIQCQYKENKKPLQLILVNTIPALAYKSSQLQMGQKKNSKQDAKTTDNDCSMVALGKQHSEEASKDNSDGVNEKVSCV
Sequence of 5-HT2B receptor (P41595 whole entry): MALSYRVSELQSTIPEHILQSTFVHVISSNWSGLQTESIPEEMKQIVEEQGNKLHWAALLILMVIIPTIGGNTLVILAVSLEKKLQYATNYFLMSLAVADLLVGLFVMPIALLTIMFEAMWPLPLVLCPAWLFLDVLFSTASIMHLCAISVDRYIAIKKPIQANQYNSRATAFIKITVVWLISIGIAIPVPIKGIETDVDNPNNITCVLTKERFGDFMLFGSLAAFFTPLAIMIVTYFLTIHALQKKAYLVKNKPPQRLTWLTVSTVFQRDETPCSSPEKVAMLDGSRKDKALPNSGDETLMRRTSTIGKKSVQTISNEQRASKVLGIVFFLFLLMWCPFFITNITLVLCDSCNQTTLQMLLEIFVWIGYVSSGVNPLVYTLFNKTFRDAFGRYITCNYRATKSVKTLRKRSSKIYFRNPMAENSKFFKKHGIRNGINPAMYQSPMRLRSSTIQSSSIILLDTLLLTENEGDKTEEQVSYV

SMILES	EC50 (5-HT2A receptor [1])	EC50 (5-HT2B receptor; [3])	EC50 (5-HT2C receptor; [4])	EC50 (5-HT2A receptor [1]; [5])	EC50 (5-HT2B receptor)	EC50 (5-HT2C receptor)	Ki (5-HT2A receptor [2])
FC(F)(F)c1ccccc1-c1ccnc2c1CC[C@@H]1CNCCN21 [Compound 134, (R)-(2-(trifluoromethyl)phenyl)-6,6a,7,8,9,10-hexahydro-5H-pyrazino[1,2-a][1,8]naphthyridine]	≥ 100 µM	1.73 µM	5.61 µM	–	–	–	–
FC(F)(F)Oc1cccc(-c2ccnc3c2CC[C@@H]2CNCCN32)c1 [Compound 105, (R)-4-(3-(trifluoromethoxy)phenyl)-6,6a,7,8,9,10-hexahydro-5H-pyrazino[1,2-a][1,8]naphthyridine]	–	≥ 100 µM	3.07 µM	≥ 100 µM	–	–	–
c1cnc2c(c1)CC[C@@H]1CNCCN21 [Compound 148, (R)-6,6a,7,8,9,10-hexahydro-5H-pyrazino[1,2-a][1,8]naphthyridine]	–	0.0612 µM	0.0934 µM	100 µM	–	–	–
c1cc2c(cn1)N1CCNC[C@H]1CC2 [Compound 153, (R)-6,6a,7,8,9,10-hexahydro-5H-pyrazino[1,2-a][1,7]naphthyridine]	–	0.779 µM	0.329 µM	100 µM	–	–	–
CNC(=O)c1ccnc2c1CC[C@@H]1CNCCN21 [Compound 102, (R)-N-methyl-6,6a,7,8,9,10-hexahydro-5H-pyrazino[1,2-a][1,8]naphthyridine-4-carboxamide]	≥ 100 µM	≥ 100 µM	100 µM	–	–	–	–
O=C(Nc1ccnc2c1CC[C@@H]1CNCCN21)c1ccccc1 [Compound 139, (R)-N-(6,6a,7,8,9,10-hexahydro-5H-pyrazino[1,2-a][1,8]naphthyridin-4-yl)benzamide]	≥ 100 µM	≥ 100 µM	100 µM	–	–	–	–
c1cc2c(cn1)CC[C@@H]1CNCCN21 [Compound 155, (R)-2,3,4,4a,5,6-hexahydro-1H-pyrazino[1,2-a][1,6]naphthyridine]	≥ 100 µM	–	–	–	≥ 100 µM	100 µM	–
c1cc(C2CCC2)c2c(n1)N1CCNC[C@H]1CC2 [Compound 149, (R)-4-cyclobutyl-6,6a,7,8,9,10-hexahydro-5H-pyrazino[1,2-a][1,8]naphthyridine]	–	–	–	0.236 µM	–	–	0.0103 µM
CCCC(C)c1ccnc2c1CC[C@@H]1CNCCN21 (stereo partly drawn) [Compound 109, (6aR)-4-(pentan-2-yl)-6,6a,7,8,9,10-hexahydro-5H-pyrazino[1,2-a][1,8]naphthyridine]	–	–	–	–	–	–	0.0259 µM
CCCc1cncc2c1CC[C@@H]1CNCCN21 [Compound 173, (R)-4-propyl-6,6a,7,8,9,10-hexahydro-5H-pyrazino[1,2-a][1,7]naphthyridine]	–	–	–	–	–	–	0.044 µM
CCc1c(CC2CCCC2)cnc2c1CC[C@@H]1CNCCN21 [Compound 171, (R)-3-(cyclopentylmethyl)-4-ethyl-6,6a,7,8,9,10-hexahydro-5H-pyrazino[1,2-a][1,8]naphthyridine]	–	–	–	–	–	–	0.351 µM
CC1CC2CNCCN2c2ncccc21 (stereo not drawn) [Compound 158, 5-methyl-6,6a,7,8,9,10-hexahydro-5H-pyrazino[1,2-a][1,8]naphthyridine]	–	–	–	–	–	–	1.08 µM
O=C(Nc1ccnc2c1CC[C@@H]1CNCCN21)c1ccccc1Cl [Compound 104, (R)-2-chloro-N-(6,6a,7,8,9,10-hexahydro-5H-pyrazino[1,2-a][1,8]naphthyridin-4-yl)benzamide]	≥ 100 µM	≥ 100 µM	100 µM	–	–	–	–
O=C(Nc1ccnc2c1CC[C@@H]1CNCCN21)C1CC1 [Compound 141, (R)-N-(6,6a,7,8,9,10-hexahydro-5H-pyrazino[1,2-a][1,8]naphthyridin-4-yl)cyclopropanecarboxamide]	≥ 100 µM	≥ 100 µM	100 µM	–	–	–	–
CCCC(=O)Nc1ccnc2c1CC[C@@H]1CNCCN21 [Compound 125, (R)-N-(6,6a,7,8,9,10-hexahydro-5H-pyrazino[1,2-a][1,8]naphthyridin-4-yl)butyramide]	≥ 100 µM	≥ 100 µM	100 µM	–	–	–	–
O=C(Nc1ccnc2c1CC[C@@H]1CNCCN21)N1CCCC1 [Compound 131, (R)-N-(6,6a,7,8,9,10-hexahydro-5H-pyrazino[1,2-a][1,8]naphthyridin-4-yl)pyrrolidine-1-carboxamide]	≥ 100 µM	≥ 100 µM	100 µM	–	–	–	–
Clc1ccnc2c1CC[C@@H]1CNCCN21 [Compound 150, (R)-4-chloro-6,6a,7,8,9,10-hexahydro-5H-pyrazino[1,2-a][1,8]naphthyridine]	1.33 µM	–	–	–	0.0454 µM	0.00519 µM	–
CSc1nc(Cl)c2c(n1)N1CCNC[C@H]1CC2 [Compound 169, (R)-4-chloro-2-(methylthio)-6,6a,7,8,9,10-hexahydro-5H-pyrazino[1′,2′:1,6]pyrido[2,3-d]pyrimidine]	–	–	–	–	–	–	0.129 µM
c1cc2c(c(CC3CCC3)n1)CC[C@@H]1CNCCN21 [Compound 154, (R)-7-(cyclobutylmethyl)-2,3,4,4a,5,6-hexahydro-1H-pyrazino[1,2-a][1,6]naphthyridine]	≥ 100 µM	–	–	–	≥ 100 µM	5.58 µM	–
O=C(Nc1ccnc2c1CC[C@@H]1CNCCN21)c1cccc(F)c1F [Compound 138, (R)-2,3-difluoro-N-(6,6a,7,8,9,10-hexahydro-5H-pyrazino[1,2-a][1,8]naphthyridin-4-yl)benzamide]	–	≥ 100 µM	5.82 µM	≥ 100 µM	–	–	–
c1cc(-c2ccc3c(c2)OCO3)c2c(n1)N1CCNC[C@H]1CC2 [Compound 101, (R)-4-(benzo[d][1,3]dioxol-5-yl)-6,6a,7,8,9,10-hexahydro-5H-pyrazino[1,2-a][1,8]naphthyridine]	≥ 100 µM	≥ 100 µM	7.51 µM	–	–	–	–
CCc1c(COC(C)C)cnc2c1CC[C@@H]1CNCCN21 [Compound 163, (R)-4-ethyl-3-(isopropoxymethyl)-6,6a,7,8,9,10-hexahydro-5H-pyrazino[1,2-a][1,8]naphthyridine]	–	–	–	–	–	–	0.468 µM
c1cc(C2CC2)c2c(n1)N1CCNC[C@H]1CC2 [Compound 151, (R)-4-cyclopropyl-6,6a,7,8,9,10-hexahydro-5H-pyrazino[1,2-a][1,8]naphthyridine]	0.435 µM	–	–	–	0.015 µM	0.00622 µM	–
O=C(NCC(F)F)c1ccnc2c1CC[C@@H]1CNCCN21 [Compound 140, (R)-N-(2,2-difluoroethyl)-6,6a,7,8,9,10-hexahydro-5H-pyrazino[1,2-a][1,8]naphthyridine-4-carboxamide]	≥ 100 µM	≥ 100 µM	4.62 µM	–	–	–	–
O=C(Cc1ccccc1)Nc1ccnc2c1CC[C@@H]1CNCCN21 [Compound 124, (R)-N-(6,6a,7,8,9,10-hexahydro-5H-pyrazino[1,2-a][1,8]naphthyridin-4-yl)-2-phenylacetamide]	≥ 100 µM	≥ 100 µM	3.66 µM	–	–	–	–
CCc1c(C2CCC2)cnc2c1CC[C@@H]1CNCCN21 [Compound 166, (R)-3-cyclobutyl-4-ethyl-6,6a,7,8,9,10-hexahydro-5H-pyrazino[1,2-a][1,8]naphthyridine]	–	–	–	–	–	–	0.958 µM
CCOC(=O)Nc1ccnc2c1CC[C@@H]1CNCCN21 [Compound 123, (R)-ethyl(6,6a,7,8,9,10-hexahydro-5H-pyrazino[1,2-a][1,8]naphthyridin-4-yl)carbamate]	≥ 100 µM	≥ 100 µM	0.898 µM	–	–	–	–
c1cc(C2CCCCC2)c2c(n1)N1CCNC[C@H]1CC2 [Compound 127, (R)-4-cyclohexyl-6,6a,7,8,9,10-hexahydro-5H-pyrazino[1,2-a][1,8]naphthyridine]	9.07 µM	0.919 µM	1.51 µM	–	–	–	–
COc1ccc(-c2ccnc3c2CC[C@@H]2CNCCN32)cc1 [Compound 135, (R)-4-(4-methoxyphenyl)-6,6a,7,8,9,10-hexahydro-5H-pyrazino[1,2-a][1,8]naphthyridine]	≥ 100 µM	≥ 100 µM	5.41 µM	–	–	–	–
